From patent publication US8846739B2, “TGR5 agonists” (Exelixis Patent Company LLC, priority 2009, dated 2014)

Columns and labels:
[1] = molecular target: T1, h-TGR5 (Homo sapiens, UniProt Q8TDU6); assay: TGR5 cAMP Assay using Cisbio cAMP Dynamic 2 htrf assay kit; format: cell-based; conditions: hTGR5CRE-luc HEK 293 cells
T1 sequence (Q8TDU6 1-330): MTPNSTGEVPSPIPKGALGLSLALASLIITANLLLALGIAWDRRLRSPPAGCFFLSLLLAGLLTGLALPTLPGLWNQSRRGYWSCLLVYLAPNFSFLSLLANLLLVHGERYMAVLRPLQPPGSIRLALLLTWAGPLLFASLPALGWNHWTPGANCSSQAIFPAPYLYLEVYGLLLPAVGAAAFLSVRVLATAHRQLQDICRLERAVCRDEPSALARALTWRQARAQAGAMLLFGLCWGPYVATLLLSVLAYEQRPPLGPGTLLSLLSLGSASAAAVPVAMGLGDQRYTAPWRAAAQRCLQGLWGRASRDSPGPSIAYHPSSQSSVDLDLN

[2] = molecular target: T2, human TGR5 (h-TGR5) (Homo sapiens, UniProt Q8TDU6); assay: TGR5/CRE-Luciferase Assay; format: cell-based; conditions: HEK 293 hTGR5/CRE-Luc cells, 6 hours incubation, read-out: CRE-Luc Agonist (EC50)
T2 sequence (Q8TDU6 1-330): T1 sequence (Q8TDU6 1-330)
How it was run: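 HEK 293 CRE-Luciferase cells stably expressing the receptor, plated in DMEM 18-20 h before assay, then exposed to serially diluted compounds (DMEM with 5% DMSO) for 6 h. Luciferase read-out after lysis; EC50 from dose-response.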

Compound | EC50 [1] | EC50 [2]
CCN(CCC[N+](C)(C)C)S(=O)(=O)c1cc(F)c(CSc2ncc(C(C)(C)c3ccc(F)c(OC)c3)n2-c2ccc(F)cc2)c(Cl)c1 [Compound 14j, 3-[{[3-chloro-5-fluoro-4-({[5-{1-[4-fluoro-3-(methyloxy)phenyl]-1-methylethyl}-1-(4-fluorophenyl)-1H-imidazol-2-yl]thio}methyl)phenyl]sulfonyl} (ethyl)amino]-N,N,N-trimethylpropan-1-aminium] | < 100 nM | < 100 nM
COc1cc(C(C)(C)c2cnc(SCc3c(F)cc(S(=O)(=O)N(CCC[N+](C)(C)C)C4CC4)cc3Cl)n2-c2ccc(F)cc2)ccc1F [Compound 14k, 3-[{[3-chloro-5-fluoro-4-({[5-{1-[4-fluoro-3-(methyloxy)phenyl]-1-methylethyl}-1-(4-fluorophenyl)-1H-imidazol-2-yl]thio}methyl)phenyl]sulfonyl} (cyclopropyl)amino]-N,N,N-trimethylpropan-1-aminium] | < 100 nM | < 100 nM
COc1cc(C(C)(C)c2cnc(SCc3c(F)cc(S(=O)(=O)N(CCC[N+](C)(C)C)C(C)C)cc3Cl)n2-c2ccc(F)cc2)ccc1F [Compound 14l, 3-[{[3-chloro-5-fluoro-4-({[5-{1-[4-fluoro-3-(methyloxy)phenyl]-1-methylethyl}-1-(4-fluorophenyl)-1H-imidazol-2-yl]thio}methyl)phenyl]sulfonyl} (1-methylethyl)amino]-N,N,N-trimethylpropan-1-aminium] | < 100 nM | < 100 nM
CC[N+](C)(C)CCCN(C)S(=O)(=O)c1cc(F)c(CSc2ncc(C(C)(C)c3ccc(F)c(OC)c3)n2-c2ccc(F)cc2)c(Cl)c1 [Compound 14m, 3-[{[3-chloro-5-fluoro-4-({[5-{1-[4-fluoro-3-(methyloxy)phenyl]-1-methylethyl}-1-(4-fluorophenyl)-1H-imidazol-2-yl]thio}methyl)phenyl]sulfonyl} (methyl)amino]-N-ethyl-N,N-dimethylpropan-1-aminium] | < 100 nM | < 100 nM
COc1cc(C(C)(C)c2cnc(SCc3c(F)cc(S(=O)(=O)N(CCC[N+](C)(C)C)CC(=O)O)cc3Cl)n2-c2ccc(F)cc2)ccc1F [Compound 14n, 3-[(carboxymethyl){[3-chloro-5-fluoro-4-({[5-{1-[4-fluoro-3-(methyloxy)phenyl]-1-methylethyl}-1-(4-fluorophenyl)-1H-imidazol-2-yl]thio}methyl)phenyl]sulfonyl}amino]-N,N,N-trimethylpropan-1-aminium] | < 100 nM | < 100 nM
COc1cc(C(C)(C)c2cnc(SCc3c(F)cc(S(=O)(=O)N(CCCC[N+](C)(C)C)CC(=O)O)cc3F)n2-c2ccc(F)cc2)ccc1Cl [Compound 14o, 4-[(carboxymethyl){[4-({[5-{1-[4-chloro-3-(methyloxy)phenyl]-1-methylethyl}-1-(4-fluorophenyl)-1H-imidazol-2-yl]thio}methyl)-3,5-difluorophenyl]sulfonyl}amino]-N,N,N-trimethylbutan-1-aminium] | < 100 nM | < 100 nM
COc1cc(C(C)(C)c2cnc(SCc3c(F)cc(S(=O)(=O)N(CCC[N+](C)(C)C)[C@H](C(=O)O)C(C)C)cc3F)n2-c2ccc(F)cc2)ccc1Cl [Compound 14p, 3-([(1S)-1-carboxy-2-methylpropyl]{[4-({[5-{1-[4-chloro-3-(methyloxy)phenyl]-1-methylethyl}-1-(4-fluorophenyl)-1H-imidazol-2-yl]thio}methyl)-3,5-difluorophenyl]sulfonyl}amino)-N,N,N-trimethylpropan-1-aminium] | < 100 nM | < 100 nM
COc1cc(C(C)(C)c2cnc(SCc3c(F)cc(S(=O)(=O)N(CCC[N+](C)(C)C)[C@@H](C(=O)O)C(C)C)cc3F)n2-c2ccc(F)cc2)ccc1Cl [Compound 14q, 3-([(1R)-1-carboxy-2-methylpropyl]{[4-({[5-{1-[4-chloro-3-(methyloxy)phenyl]-1-methylethyl}-1-(4-fluorophenyl)-1H-imidazol-2-yl]thio}methyl)-3,5-difluorophenyl]sulfonyl}amino)-N,N,N-trimethylpropan-1-aminium] | < 100 nM | < 100 nM
COc1cc(C(C)(C)c2cnc(SCc3c(F)cc(S(=O)(=O)N(CCC[N+](C)(C)C)CCC(=O)O)cc3F)n2-c2ccc(F)cc2)ccc1Cl [Compound 14r, 3-[(2-carboxyethyl){[4-({[5-{1-[4-chloro-3-(methyloxy)phenyl]-1-methylethyl}-1-(4-fluorophenyl)-1H-imidazol-2-yl]thio}methyl)-3,5-difluorophenyl]sulfonyl}amino]-N,N,N-trimethylpropan-1-aminium] | < 100 nM | < 100 nM
COc1cc(C(C)(C)c2cnc(SCc3c(F)cc(S(=O)(=O)N(CCC[N+](C)(C)C)CC(=O)O)cc3Cl)n2-c2ccc(F)cc2)ccc1Cl [Compound 14s, 3-[(carboxymethyl){[3-chloro-4-({[5-{1-[4-chloro-3-(methyloxy)phenyl]-1-methylethyl}-1-(4-fluorophenyl)-1H-imidazol-2-yl]thio}methyl)-5-fluorophenyl]sulfonyl}amino]-N,N,N-trimethylpropan-1-aminium] | < 100 nM | < 100 nM
COc1cc(C(C)(C)c2cnc(SCc3c(F)cc(S(=O)(=O)N(CCC[N+](C)(C)C)[C@@H](CO)C(=O)O)cc3F)n2-c2ccc(F)cc2)ccc1Cl [Compound 14t, 3-([(1S)-1-carboxy-2-hydroxyethyl]{[4-({[5-{1-[4-chloro-3-(methyloxy)phenyl]-1-methylethyl}-1-(4-fluorophenyl)-1H-imidazol-2-yl]thio}methyl)-3,5-difluorophenyl]sulfonyl}amino)-N,N,N-trimethylpropan-1-aminium] | < 100 nM | < 100 nM
COc1cc(C(C)(C)c2cnc(SCc3c(F)cc(S(=O)(=O)N(CCC[N+](C)(C)C)CCC(=O)O)cc3Cl)n2-c2ccc(F)cc2)ccc1Cl [Compound 14u, 3-[(2-carboxyethyl){[3-chloro-4-({[5-{1-[4-chloro-3-(methyloxy)phenyl]-1-methylethyl}-1-(4-fluorophenyl)-1H-imidazol-2-yl]thio}methyl)-5-fluorophenyl)sulfonyl}amino]-N,N,N-trimethylpropan-1-aminium] | < 100 nM | < 100 nM
COc1cc(C(C)(C)c2cnc(SCc3c(F)cc(S(=O)(=O)N(CCC[N+](C)(C)C)Cc4cccc(C(=O)O)c4)cc3F)n2-c2ccc(F)cc2)ccc1Cl [Compound 14v, 3-([(3-carboxyphenyl)methyl]{[4-({[5-{1-[4-chloro-3-(methyloxy)phenyl]-1-methylethyl}-1-(4-fluorophenyl)-1H-imidazol-2-yl]thio}methyl)-3,5-difluorophenyl]sulfonyl}amino)-N,N,N-trimethylpropan-1-aminium] | < 100 nM | < 100 nM
CC[C@@H](C(=O)O)N(CCC[N+](C)(C)C)S(=O)(=O)c1cc(F)c(CSc2ncc(C(C)(C)c3ccc(Cl)c(OC)c3)n2-c2ccc(F)cc2)c(Cl)c1 [Compound 14w, 3-([(1S)-1-carboxypropyl]{[3-chloro-4-({[5-{1-[4-chloro-3-(methyloxy)phenyl]-1-methylethyl}-1-(4-fluorophenyl)-1H-imidazol-2-yl]thio}methyl)-5-fluorophenyl]sulfonyl}amino)-N,N,N-trimethylpropan-1-aminium] | < 100 nM | < 100 nM
